This is an account of results in patent EP4032896A1, “THIAZOLOPYRIMIDONES AS INHIBITORS OF DDR1/2 AND THERAPEUTIC USES THEREOF” (Fundación del Sector Público Estatal Centro Nacional de …, priority 2021, dated 2022).

The IC50 is the concentration that gives 50% inhibition. A high value points to weaker potency. As a reminder, the EC50 is the midpoint of the concentration-response curve.

Experiment [1] addresses T1, DDR1 (Homo sapiens, UniProt Q08345).
T1 construct: The enzymes were purchased as a catalytic domain GST Tag DDR1(#PR6913A); purchased ThermoFisher PR6913A
In words: LanthaScreen Eu-Kinase Binding Assay (TR-FRET tracer displacement), DDR1. As to conditions: catalytic domain GST Tag DDR1; Kinase Tracer 178. From the text:
(§1) DDR1/2 binding assay: The binding assay relies on the LanthaScreen ™ Eu-Kinase Binding Assay (ThermoFisher Scientfic). This is a kinase assay platform based on measuring the binding and displacement of an Alexa Fluor® conjugate of an ATP-competitive kinase inhibitor or tracer at a kinase active site (Kinase Tracer 178. #PV5593). Binding of the tracer to the kinase is detected by addition of a europium (Eu)-labeled anti-GST antibody (#PV 5594) which specifically labels the kinase of interest. This binding results in a high degree of fluorescence resonance energy transfer (FRET), whereas displacement of the tracer with a kinase inhibitor results in a loss of FRET. The enzymes were purchased as a catalytic domain GST Tag DDR1(#PR6913A) and DDR2 (#PR7167A) from ThermoFisher. Assay conditions were as indicated by the kit manufacturers. Assays were performed in 384-well plates. The final read out was generated using an EnVision plate reader (Perkin-Elmer). The emission ratio was calculated by dividing the acceptor/tracer emission (665 nm) by the antibody/donor emission (615 nm). Values were plotted against the inhibitor concentration and fit to a sigmoid dose-response curve using Activity base by IDBS software.
Background: In TR-FRET formats the signal depends on donor and acceptor labels being close together.

A further experiment addresses T2, DDR2 (Homo sapiens, UniProt Q16832).
T2 construct: The enzymes were purchased as a catalytic domain GST Tag DDR1(#PR6913A) and DDR2 (#PR7167A); purchased ThermoFisher PR7167A
T2 sequence (Q16832 563-849 limits assumed): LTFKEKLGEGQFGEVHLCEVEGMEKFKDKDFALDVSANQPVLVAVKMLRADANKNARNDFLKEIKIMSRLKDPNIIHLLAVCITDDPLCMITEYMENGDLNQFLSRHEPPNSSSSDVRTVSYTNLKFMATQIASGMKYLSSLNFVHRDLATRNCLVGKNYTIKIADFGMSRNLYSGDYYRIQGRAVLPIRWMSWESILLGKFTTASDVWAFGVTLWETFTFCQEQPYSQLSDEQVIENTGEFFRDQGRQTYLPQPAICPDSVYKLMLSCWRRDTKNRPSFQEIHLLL
In words: LanthaScreen Eu-Kinase Binding Assay (TR-FRET tracer displacement), DDR2. As to conditions: catalytic domain GST Tag DDR2; Kinase Tracer 178.
Text: as §1

Experiment [2] deals with T3, DDR1 (Mus musculus, UniProt Q03146).
T3 construct: expressed in transfected cells; host or cells: HEK293T
T3 sequence (Q03146 20-911): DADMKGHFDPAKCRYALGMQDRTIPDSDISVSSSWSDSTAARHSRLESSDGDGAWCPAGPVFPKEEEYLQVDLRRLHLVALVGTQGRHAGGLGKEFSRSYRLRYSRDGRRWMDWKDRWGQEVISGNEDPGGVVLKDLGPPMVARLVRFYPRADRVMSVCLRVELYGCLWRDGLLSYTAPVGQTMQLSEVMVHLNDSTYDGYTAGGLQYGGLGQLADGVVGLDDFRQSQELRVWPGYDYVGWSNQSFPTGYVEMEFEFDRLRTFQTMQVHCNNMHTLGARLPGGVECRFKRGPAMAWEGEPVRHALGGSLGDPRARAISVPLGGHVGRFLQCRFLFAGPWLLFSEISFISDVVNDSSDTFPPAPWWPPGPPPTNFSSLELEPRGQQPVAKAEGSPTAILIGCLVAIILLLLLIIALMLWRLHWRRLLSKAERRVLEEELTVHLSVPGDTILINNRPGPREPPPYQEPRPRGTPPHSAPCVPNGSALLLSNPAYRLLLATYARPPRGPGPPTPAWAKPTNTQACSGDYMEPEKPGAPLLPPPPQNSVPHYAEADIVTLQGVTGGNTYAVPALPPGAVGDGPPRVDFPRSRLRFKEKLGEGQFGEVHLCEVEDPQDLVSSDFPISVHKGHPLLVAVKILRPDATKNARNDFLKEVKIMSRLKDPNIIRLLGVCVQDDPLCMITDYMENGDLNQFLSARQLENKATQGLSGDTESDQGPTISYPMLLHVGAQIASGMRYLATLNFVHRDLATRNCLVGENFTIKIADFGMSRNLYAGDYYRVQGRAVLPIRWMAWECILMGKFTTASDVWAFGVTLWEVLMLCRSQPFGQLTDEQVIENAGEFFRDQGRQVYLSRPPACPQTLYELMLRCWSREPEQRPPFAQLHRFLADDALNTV
In words: Cellular assay: inhibition of Collagen I-induced DDR1 autophosphorylation in HEK293T cells transiently transfected with DDR1 plasmid (Western blot). Type of experiment: cell-based, human. As to conditions: pcDNA3.1 DDR1 WT mouse plasmid, compound 1 h, then 10 µg/mL Collagen I 1 h, P-DDR1 (Y513), read-out: pDDR1 EC50. As for the experimental part:
DDR1/2 cellular assay: Transient transfection of HEK293T cells with DDR1 plasmid is used to study the inhibition of the autophosphorylation of DDR1 induced by Collagen I in cells. HEK293T are seeded, 6x10^5 cells per well in 6-well plates and incubated for 6 h at 37 °C, 5% CO2. Then, cells are transfected using Effectene reactive (Quiagen) with pcDNA3.1 DDR1 WT mouse plasmid. Cells are incubated with transfection complexes under normal growth conditions for 24 h. After that, medium is replaced with fresh medium and cells are incubated for an additional 18 h. Eight serial 1:3 compound dilutions are made in DMSO. The compounds are added to each well of 6 well cell plates and are incubated at 37 °C under CO2 atmosphere 1 h. DDR1's autophosphorylation is stimulated by 1h treatment with 10 µg/mL Collagen I. Then, cells are washed in PBS, lyse adding 100 µl of complete RIPA protein lysis buffer (RIPA Buffer, 1 mM DTT, 5 mM Bezamidine, 10 µg/mL Aprotinin, 10 µg/mL Leupeptin, 710 ng/mL Pepstatin A, 100 µg/mL Trypsin Inhibitor, 40 µg/mL Bestatin, completed with PhosSTOP EASYpack and complete Mini, EDTA-free) and incubated 20 minutes at 4 °C and then centrifugated. Lysates are kept at -80 °C. The protein content of the lysates is determined by DC protein assay (Biorad, Ref. 5000116). The proteins are resolved by SDS-PAGE and transferred to nitrocellulose membrane (GE Healthcare #10600003). The membranes are incubated overnight at 4 °C with antibodies specific for DDR1 (D1G6) (Cell signaling #5583), P-DDR1 (Y513) (E1N8F) (Cell Signaling # 14531) they are washed and then incubated with Alexa Fluor 680 goat anti-rabbit IgG secondary antibodies (Invitrogen, A21076). The bands are visualized and quantified using an Odyssey infrared imaging system (Li-Cor Biosciences). The percentage of DDR1 phosphorylation is finally plotted against concentration for each compound and EC50s for intracellular DDR1 inhibition are calculated using ActivityBase from IDBS.
Background: Immunoblotting shows a protein as a band on a membrane.

Molecules are shown by their SMILES.

T1 sequence (Q08345 610-905 limits assumed): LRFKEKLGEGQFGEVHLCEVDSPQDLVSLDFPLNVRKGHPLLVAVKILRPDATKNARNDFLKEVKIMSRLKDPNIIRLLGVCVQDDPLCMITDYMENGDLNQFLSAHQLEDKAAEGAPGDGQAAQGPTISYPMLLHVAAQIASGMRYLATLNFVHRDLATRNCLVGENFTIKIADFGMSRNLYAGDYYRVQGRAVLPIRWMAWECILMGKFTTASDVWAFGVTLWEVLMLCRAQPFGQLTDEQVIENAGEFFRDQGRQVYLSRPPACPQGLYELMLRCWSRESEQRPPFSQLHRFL

Turning to `O=c1ccnc2sc(-c3ccnc(Nc4cccc(N5CCN(CCO)CC5)c4)n3)c(-c3ccc(F)cc3)n12` [Compound 58, 3-(4-Fluoro-phenyl)-2-(2-{3-[4-(2-hydroxy-ethyl)-piperazin-1-yl]-phenylamino}-pyrimidin-4-yl)-thiazolo[3,2-a]pyrimidin-5-one], the IC50 on DDR1 [1] stood at 6.4 nM; at DDR2, 30.5 nM. On DDR1 [2], the EC50 came out at 28 nM.
As for `NS(=O)(=O)c1cccc(Nc2nccc(-c3sc4nccc(=O)n4c3-c3cccc(Cl)c3Cl)n2)c1` [Compound 59, 3-{4-[3-(2,3-Dichloro-phenyl)-5-oxo-5H-thiazolo[3,2-a]pyrimidin-2-yl]-pyrimidin-2-ylamino}-benzenesulfonamide], the IC50 stood at 10.2 nM at DDR1 [1] and 47.3 nM at DDR2. For the same molecule, the concentration giving a half-maximal response (EC50) on DDR1 [2] turned out to be 99.3 nM.
With `O=c1ccnc2sc(-c3ccnc(Nc4cccc(N5CCN(CCO)CC5)c4)n3)c(-c3cccc(Cl)c3Cl)n12` [Compound 60, 3-(2,3-Dichloro-phenyl)-2-(2-{3-[4-(2-hydroxy-ethyl)-piperazin-1-yl]-phenylamino}-pyrimidin-4-yl)-thiazolo[3,2-a]pyrimidin-5-one], the IC50 at DDR1 [1] was determined as 5.43 nM; on DDR2, 18.3 nM. The EC50 at DDR1 [2] is 31.9 nM.
Regarding `NS(=O)(=O)c1cccc(Nc2nccc(-c3sc4nccc(=O)n4c3-c3ccc(Cl)c(Cl)c3)n2)c1` [Compound 61, 3-{4-[3-(3,4-Dichloro-phenyl)-5-oxo-5H-thiazolo[3,2-a]pyrimidin-2-yl]-pyrimidin-2-ylamino}-benzenesulfonamide], the IC50 came out at 12.9 nM on DDR1 [1] and 40.8 nM at DDR2. For the same molecule, the concentration for a half-maximal effect (EC50) at DDR1 [2] worked out at 63.2 nM.
In the case of `COc1ccc(-c2c(-c3ccnc(Nc4cccc(N5CCN(CCO)CC5)c4)n3)sc3nccc(=O)n23)cc1Cl` [Compound 62, 3-(3-Chloro-4-methoxy-phenyl)-2-(2-{3-[4-(2-hydroxy-ethyl)-piperazin-1-yl]-phenylamino}-pyrimidin-4-yl)-thiazolo[3,2-a]pyrimidin-5-one], the 50% inhibitory concentration (IC50) at DDR1 [1] is 10.9 nM; at DDR2, 54 nM. The half-maximal effective concentration (EC50) at DDR1 [2] is 82.7 nM.
`O=c1ccnc2sc(-c3ccnc(Nc4cccc(N5CCN(CCO)CC5)c4)n3)c(-c3ccc(F)c(C(F)(F)F)c3)n12` [Compound 63, 3-(4-Fluoro-3-trifluoromethyl-phenyl)-2-(2-{3-[4-(2-hydroxy-ethyl)-piperazin-1-yl]-phenylamino}-pyrimidin-4-yl)-thiazolo[3,2-a]pyrimidin-5-one]: the IC50 at DDR1 [1] was 119 nM; at DDR2, 325 nM. Moreover, the EC50 on DDR1 [2] worked out at 142 nM.
On the same counts, the results for `CC(C)c1c(-c2ccnc(Nc3cccc(N4CCN(CCO)CC4)c3)n2)sc2nccc(=O)n12` [Compound 64, 2-(2-{3-[4-(2-Hydroxy-ethyl)-piperazin-1-yl]-phenylamino}-pyrimidin-4-yl)-3-isopropyl-thiazolo[3,2-a]pyrimidin-5-one] are 15.3 nM, 90.6 nM and 58.7 nM.
For the molecule `O=c1ccnc2sc(-c3ccnc(Nc4cccc(N5CCN(CCO)CC5)c4)n3)c(C3CC3)n12` [Compound 65, 3-Cyclopropyl-2-(2-{3-[4-(2-hydroxy-ethyl)-piperazin-1-yl]-phenylamino}-pyrimidin-4-yl)-thiazolo[3,2-a]pyrimidin-5-one], the values for the IC50 on DDR1 [1] and at DDR2 were 118 nM and 466 nM, respectively. The EC50 at DDR1 [2] was 163 nM.
For `O=c1ccnc2sc(-c3ccnc(Nc4cccc(N5CCN(CCO)CC5)c4)n3)c(C3CCOCC3)n12` [Compound 66, 2-(2-{3-[4-(2-Hydroxy-ethyl)-piperazin-1-yl]-phenylamino}-pyrimidin-4-yl)-3-(tetrahydropyran-4-yl)-thiazolo[3,2-a]pyrimidin-5-one], the IC50 at DDR1 [1] amounted to 321 nM; at DDR2, 1480 nM. Also, the EC50 on DDR1 [2] worked out at 610 nM.
Take `CCOC(=O)c1cnc2sc(-c3ccnc(Nc4cccc(N5CCN(CCO)CC5)c4)n3)c(-c3ccccc3)n2c1=O` [Compound 71, 2-(2-{3-[4-(2-Hydroxy-ethyl)-piperazin-1-yl]-phenylamino}-pyrimidin-4-yl)-5-oxo-3-phenyl-5H-thiazolo[3,2-a]pyrimidine-6-carboxylic acid ethyl ester]: the IC50 is 147 nM on DDR1 [1] and 423 nM on DDR2. For the same molecule, the EC50 at DDR1 [2] stood at 34.6 nM.
Take `Cc1cc(=O)n2c(-c3ccccc3)c(-c3ccnc(Nc4cccc(N5CCN(CCO)CC5)c4)n3)sc2n1` [Compound 72, 2-(2-{3-[4-(2-Hydroxy-ethyl)-piperazin-1-yl]-phenylamino}-pyrimidin-4-yl)-7-methyl-3-phenyl-thiazolo[3,2-a]pyrimidin-5-one]: the concentration for half-maximal inhibition (IC50) was determined as 9.06 nM at DDR1 [1] and 26.9 nM on DDR2. Also, the EC50 on DDR1 [2] is 59 nM.
As to `CCc1cc(=O)n2c(-c3ccccc3)c(-c3ccnc(Nc4cccc(N5CCN(CCO)CC5)c4)n3)sc2n1` [Compound 74, 7-Ethyl-2-(2-{3-[4-(2-hydroxy-ethyl)-piperazin-1-yl]-phenylamino}-pyrimidin-4-yl)-3-phenyl-thiazolo[3,2-a]pyrimidin-5-one], the half-inhibitory concentration (IC50) at DDR1 [1] stood at 12.9 nM; on DDR2, 11.6 nM. On DDR1 [2], the EC50 stood at 39.5 nM.
The corresponding values for `Cc1nc2sc(-c3ccnc(Nc4cccc(N5CCN(CCO)CC5)c4)n3)c(-c3ccccc3)n2c(=O)c1C` [Compound 75, 2-(2-{3-[4-(2-Hydroxy-ethyl)-piperazin-1-yl]-phenylamino}-pyrimidin-4-yl)-6,7-dimethyl-3-phenyl-thiazolo[3,2-a]pyrimidin-5-one] are 15.3 nM, 55.8 nM and 141 nM.
